Measurements from ChEMBL document CHEMBL1201862, “PubChem BioAssay data set” (2004).
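Method: 48-hour compound exposure of cells in 96-well plates, five concentrations, linear interpolation of endpoints. The concentration for 50% growth inhibition is given as GI50.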 Calls of active or inactive are those of the source. Cut-off read from the data, not from the text of the source: active = GI50 up to about 1.1 µM and inactive = higher.

Assays:
Assay in all cases: inhibition of tumour cell growth, NCI panel, 48 h
Hs-578T = test system: Hs-578T
T47D = test system: T47D
MDA-MB-231 = test system: MDA-MB-231
BT-549 = test system: BT-549
SNB-78 = test system: SNB-78
HOP-18 = test system: HOP-18
KM-20L2 = test system: KM-20L2
XF498 = test system: XF498

SMILES	GI50 (Hs-578T)	GI50 (T47D)	GI50 (MDA-MB-231)	GI50 (BT-549)	GI50 (SNB-78)	GI50 (HOP-18)	GI50 (KM-20L2)	GI50 (XF498)
COc1ccc2c3c1OC1C(OC)(OC)C=C[C@@]4(Br)[C@@H](C2)N(CC2CC2)CC[C@]314 (stereo partly drawn)	41.7 µM (inactive)	97.9 µM (inactive)	45.6 µM (inactive)					
O=C1OC2(c3ccc(O)cc3Oc3cc(O)ccc32)c2c1c(-c1ccccc1)c(-c1ccccc1)c(-c1ccccc1)c2-c1ccccc1	22 µM (inactive)	26.5 µM (inactive)	18.7 µM (inactive)	23.6 µM (inactive)				
CN1CCN([C@H]2C[C@H]3[C@@H]4CC=C5C[C@@H](O)CC[C@]5(C)[C@H]4CC[C@]3(C)[C@H]2O)CC1	> 100 µM (inactive)	> 47.4 µM (inactive)	> 48.3 µM (inactive)	> 81.8 µM (inactive)				
c1ccc2c(CN3CCN(Cc4c[nH]c5ccccc45)CC3)c[nH]c2c1	15.9 µM (inactive)	14.2 µM (inactive)	14.9 µM (inactive)	22 µM (inactive)				
Cc1ccc2c(c1)C1C(CO2)C(c2ccccc2)=NN1c1ccccc1 (stereo not drawn)					> 100 µM (inactive)	> 100 µM (inactive)	> 100 µM (inactive)	
c1cc(Sc2nc(Sc3ccncc3)nc(Sc3ccncc3)n2)ccn1	> 100 µM (inactive)	> 100 µM (inactive)	> 100 µM (inactive)	> 100 µM (inactive)				
O=C(N/N=C(COc1ccccc1Cl)\N=C\c1cccnc1)c1ccncc1	66.2 µM (inactive)	> 100 µM (inactive)	> 100 µM (inactive)	> 100 µM (inactive)				
COC(=O)Cc1cc(=O)n2c([nH]c3ccccc32)c1C#N					> 100 µM (inactive)		> 100 µM (inactive)	> 100 µM (inactive)
O=C1N(CN2CCOCC2)CN(CN2CCOCC2)C(=O)N1Cc1ccccc1		30.3 µM (inactive)	26.2 µM (inactive)	21.6 µM (inactive)				
O=C(N/C(=C\c1ccccc1)c1nc2ccccc2c(=O)o1)c1ccccc1	22.1 µM (inactive)	> 28.6 µM (inactive)	> 38.3 µM (inactive)	20 µM (inactive)				
CCCC(=O)Nc1cc(C(=O)N2C[C@H]3C[C@@]34C2=CC(=O)c2[nH]cc(C)c24)n(COC)c1	0.512 µM (active)	0.109 µM (active)	0.281 µM (active)	0.253 µM (active)				
CSCCCCCCCCCCOc1ccc(C=C2C(=C(C#N)C#N)c3ccccc3C2=C(C#N)C#N)cc1	20.5 µM (inactive)	21.6 µM (inactive)	19.4 µM (inactive)					
COc1cc(/C=C2\CCc3ccccc3C2=O)ccc1O	29 µM (inactive)			17.9 µM (inactive)				
O=C1OC(c2ccccc2)=N/C1=C\c1cn[nH]n1	> 100 µM (inactive)	> 100 µM (inactive)	> 100 µM (inactive)					
COc1ccc2nc(-c3ccc(O)cc3)sc2c1		17.5 µM (inactive)	23 µM (inactive)	18.7 µM (inactive)				
O=C(Oc1ccc(S(=O)(=O)F)cc1F)c1ccccc1Cl	25.2 µM (inactive)	31.5 µM (inactive)	23.8 µM (inactive)	39.2 µM (inactive)				
O=C(Cn1cc(F)c(=O)[nH]c1=O)C12CC3CC(CC(C3)C1)C2	> 100 µM (inactive)	> 100 µM (inactive)	> 100 µM (inactive)	> 100 µM (inactive)				
COc1cc(CCN(C)C)cc(OC)c1OC	> 100 µM (inactive)	> 100 µM (inactive)	> 100 µM (inactive)	> 100 µM (inactive)				
Cc1ccc(NC(=O)/C=C/c2ccccc2)c(C)c1	21.7 µM (inactive)	> 100 µM (inactive)	52.1 µM (inactive)	> 100 µM (inactive)				
COC(=O)[C@@H](N1C(=O)c2ccccc2C1=O)C1(C)CC(Cl)=NO1 (stereo partly drawn)	29.8 µM (inactive)	28.5 µM (inactive)	19.1 µM (inactive)	42.7 µM (inactive)				
N#C/C(=C/NC(=S)NCc1ccccc1)C(N)=O	> 100 µM (inactive)	> 100 µM (inactive)	> 100 µM (inactive)					
O=C1Nc2ccccc2S/C1=C\c1cccc(C(F)(F)F)c1	> 100 µM (inactive)	82.4 µM (inactive)	7.85 µM (inactive)	> 100 µM (inactive)				
CC[C@]1(Cc2ccc(OC)c(OC)c2)C=[N+]([O-])O[C@H](OCc2ccccc2)[C@@H]1OC(C)=O	20.4 µM (inactive)	20 µM (inactive)	36.4 µM (inactive)					
COc1cc(/C=C2\CCC(C)C3=C(c4cc(OC)c(OC)c(OC)c4)C(C#N)=C(N)OC32)cc(OC)c1OC (stereo not drawn)	2.1 µM (inactive)	2.1 µM (inactive)	2.45 µM (inactive)	5.97 µM (inactive)				
CC1=CC(=O)N(n2c(C)n[nH]c2=O)C1=O	> 100 µM (inactive)	> 100 µM (inactive)	> 100 µM (inactive)	> 100 µM (inactive)				
CC(=O)Nc1ccc(-c2nnc(SCC(=O)Nc3ccccc3)o2)cc1					80 µM (inactive)	> 100 µM (inactive)	> 100 µM (inactive)	
COC(=O)C1(CCCCCBr)CCCCCCCCCCC1=O (stereo not drawn)	> 100 µM (inactive)	32.8 µM (inactive)	36.6 µM (inactive)					
CC1=NN(C(=O)c2ccc(Cl)cc2)C(=O)/C1=C/c1cccc([N+](=O)[O-])c1					> 100 µM (inactive)		> 100 µM (inactive)	> 100 µM (inactive)
